Experimental data published in ChEMBL document CHEMBL1153720, “Three dimensional pharmacophore modelling for c-Kit receptor tyrosine kinase inhibitors” (Eur J Med Chem, 2010).

Target: Mast/stem cell growth factor receptor Kit (Homo sapiens, UniProt P10721)
Experiment: Inhibition of c-Kit by HTRF method

Sequence of Mast/stem cell growth factor receptor Kit (P10721 whole entry): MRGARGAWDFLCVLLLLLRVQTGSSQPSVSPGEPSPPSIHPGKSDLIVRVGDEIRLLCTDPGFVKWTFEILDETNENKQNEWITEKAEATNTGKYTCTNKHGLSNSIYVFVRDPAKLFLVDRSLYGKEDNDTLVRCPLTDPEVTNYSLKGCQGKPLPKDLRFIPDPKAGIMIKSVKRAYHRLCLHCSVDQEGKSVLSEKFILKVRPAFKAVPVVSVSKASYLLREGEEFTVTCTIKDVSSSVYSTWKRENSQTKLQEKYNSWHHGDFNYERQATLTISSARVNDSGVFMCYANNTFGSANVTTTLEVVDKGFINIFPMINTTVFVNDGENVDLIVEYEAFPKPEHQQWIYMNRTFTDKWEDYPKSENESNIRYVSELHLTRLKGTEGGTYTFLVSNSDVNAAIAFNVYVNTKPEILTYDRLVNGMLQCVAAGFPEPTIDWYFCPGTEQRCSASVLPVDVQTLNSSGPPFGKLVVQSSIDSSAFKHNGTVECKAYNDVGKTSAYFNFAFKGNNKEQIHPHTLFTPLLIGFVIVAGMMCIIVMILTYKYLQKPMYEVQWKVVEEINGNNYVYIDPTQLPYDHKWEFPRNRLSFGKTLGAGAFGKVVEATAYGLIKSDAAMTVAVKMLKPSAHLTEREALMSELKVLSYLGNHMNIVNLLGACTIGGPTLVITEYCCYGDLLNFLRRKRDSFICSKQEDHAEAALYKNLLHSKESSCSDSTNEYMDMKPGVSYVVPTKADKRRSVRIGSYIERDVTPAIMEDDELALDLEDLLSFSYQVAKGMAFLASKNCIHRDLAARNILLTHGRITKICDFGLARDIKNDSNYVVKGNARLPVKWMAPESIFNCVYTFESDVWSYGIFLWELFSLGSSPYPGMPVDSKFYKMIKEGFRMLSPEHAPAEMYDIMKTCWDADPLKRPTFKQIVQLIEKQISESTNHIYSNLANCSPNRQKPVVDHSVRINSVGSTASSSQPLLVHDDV

IC50: 200 nM
SMILES: Cc1ccccc1NC(=O)Nc1ccc(-c2c(C)sc3ncnc(N)c23)c(Cl)c1
